# From US8557737B2, “Methods of altering poppy characteristics” (priority 2005, dated 2013)
# How the values were obtained:
# Format in all cases: in vivo, Papaver somniferum
# poppy crops [1] = experiment: Example 16: field trial, metsulfuron-methyl, mesosulfuron-methyl and triasulfuron at row cover and ground cover/early run-up, morphine crop; conditions: Trt 5: COMPOUND 2 150 MG/HA + ACTIVATOR .125% V/V at RC and GC/ERU
# Experimental: (§1) All trials were conducted on poppy crops. Seed was treated with Thiram (5.6 g of Thiram 800/kg seed) and Apron (4 g/kg) and sown at a rate of approximately 750 g/ha. Fertilisers were applied at sowing. Most commonly, either 50:50 lime:superphosphate/triple superphosphate at 125 kg/ha, or lime:superphosphate at 250 kg/ha, were mixed with seed and drilled at a depth of 15 mm. In the same operation, NPK (nitrogen:phosphorus:potassium), at various rates, was banded 75 mm below the seed, unless otherwise stated. All crops were subjected to herbicide sprays for weed control, fungicide sprays for disease control, insecticide sprays if appropriate and were irrigated as required.
# (§2) All spray applications were made with a precision sprayer, using Silvan Lurmark flat-fan, low-drift nozzles (LD110-0015). Spray equipment was calibrated to deliver 153 L water/ha.
# (§3) At harvest, a 2 m×4 m quadrat was placed in each plot (3 m×6 m, unless otherwise stated) and capsules hand-picked from this area. Capsules were broken up, seed and capsule material separated and weighed. Capsule moisture readings were taken with a moisture meter. Alkaloid yield data were calculated on Pesticide Research Manager (version 5 for Windows) using the formulae below. Briefly, capsule weight was adjusted for moisture to a dry weight, 5% of seed weight was added to this (this amount of capsule material regularly occurs in seed samples after processing) to give a capsule weight per plot. Seed weight was adjusted to 95% of crude weight. Straw weights were determined by multiplying dry capsule weight by 1.3 (estimated amount of stem material in a commercial harvest) and adjusted to 11% moisture. When Lontrel was applied to crops exact capsule and seed weight data were entered. Analyses of variance and a Multiple Range Test were performed on data using Pesticide Research Manager.
# Trial to evaluate applications of metsulfuron-methyl (Compound 1), mesosulfuron-methyl (Compound 2) and triasulfuron (Compound 3), in a morphine crop. Treatment sprays were applied to crop at row cover and ground cover/early run-up, respectively. Plant heights were assessed 5 weeks after last application and lodging was assessed at capsule harvest.
# poppy crops [2] = experiment: Example 17: field trial, triasulfuron, mesosulfuron-methyl and metsulfuron-methyl at early run-up and mid-late run-up, morphine crop; conditions: Trt 5: COMPOUND 2 150 MG/HA + ACTIVATOR .125% V/V at ERU and M-LRU
# Experimental: as §1, §2, §3
# Trial to evaluate applications of triasulfuron, mesosulfuron-methyl and metsulfuron-methyl, in a morphine crop. Treatment sprays were applied to with crop at early run-up and mid-late run-up, respectively. Plant heights were measured on 6 weeks after last application and lodging was assessed at capsule harvest.
# poppy crops [3] = experiment: Example 9: field trial, mesosulfuron-methyl and metsulfuron-methyl, morphine crop; conditions: for LODGING: assessed on the day of capsule harvest; for HEIGHT: measured at green capsule stage
# Experimental: as §1, §2, §3
# Trial to evaluate applications of mesosulfuron-methyl (Compound 2) and metsulfuron-methyl (Compound 1), in a morphine crop. Treatment sprays were applied to crop at ground cover, late run-up and early bud-emergence, respectively. Plant heights were measured at green capsule stage, and lodging assessed on the day of capsule harvest.
# poppy crops [4] = experiment: Example 18: field trial, triasulfuron, mesosulfuron-methyl and metsulfuron-methyl at row cover, mid run-up and early hook, morphine crop; conditions: Trt 5: COMPOUND 2 150 MG/HA + ACTIVATOR .125% V/V at RC, MRU and LRU
# Experimental: as §1, §2, §3
# Trial to evaluate applications of triasulfuron, mesosulfuron-methyl and metsulfuron-methyl, in a morphine crop. […] Plant heights were measured 5 weeks after last application and lodging at capsule harvest.
# [5] = COMPOUND 2 390 MG/HA + ACTIVATOR .125 % V/V at GC and EBE
# [6] = COMPOUND 2 390 MG/HA + ACTIVATOR .125 % V/V at GC, LRU and EBE
smiles,measurement,setting,value
"COC(=O)c1ccc(CNS(C)(=O)=O)cc1S(=O)(=O)NC(=O)Nc1nc(OC)cc(OC)n1 [Compound 2, mesosulfuron-methyl]",CAPS/SEED RATIO,poppy crops [1],0.825 c
same,CROP WEIGHT,poppy crops [1],3.65 ab t/ha
same,MORPHINE,poppy crops [1],43.77 ab kg/ha
same,SEED,poppy crops [1],1671 b kg/ha
same,STRAW,poppy crops [1],1976 ab kg/ha
same,STRAW MORPHINE,poppy crops [1],2.21 a %
same,PLANT HEIGHT,poppy crops [1]; 5 weeks after last application,101.6 b cm
same,CAPS/SEED RATIO,poppy crops [2],2.315 days
same,CROP WEIGHT,poppy crops [2],2.57 b t/ha
same,MORPHINE,poppy crops [2],41.97 b kg/ha
same,SEED,poppy crops [2],612 b kg/ha
same,STRAW,poppy crops [2],1910 b kg/ha
same,STRAW MORPHINE,poppy crops [2],2.23 b %
same,PLANT HEIGHT,poppy crops [2]; 6 weeks after last application,104.0 b cm
same,LODGING,poppy crops [2]; at capsule harvest,2.8 b %
same,CAPSULE/SEED RATIO,poppy crops [3]; [5],2.084 b
same,CROP WEIGHT,poppy crops [3]; [5],1.80 c t/ha
same,MORPHINE,poppy crops [3]; [5],26.41 b kg/ha
same,SEED,poppy crops [3]; [5],460 b kg/ha
same,STRAW,poppy crops [3]; [5],1342 c kg/ha
same,STRAW MORPHINE,poppy crops [3]; [5],2.10 a %
same,LODGING,poppy crops [3]; [5],6.5 bc %
same,HEIGHT,poppy crops [3]; [5],96.0 ab cm
same,CAPSULE/SEED RATIO,poppy crops [3]; [6],1.854 b
same,CROP WEIGHT,poppy crops [3]; [6],1.16 d t/ha
same,MORPHINE,poppy crops [3]; [6],15.27 c kg/ha
same,SEED,poppy crops [3]; [6],336 b kg/ha
same,STRAW,poppy crops [3]; [6],827 d kg/ha
same,STRAW MORPHINE,poppy crops [3]; [6],2.03 a %
same,LODGING,poppy crops [3]; [6],11.0 ab %
same,HEIGHT,poppy crops [3]; [6],89.3 b cm
same,CAPS/SEED RATIO,poppy crops [4],1.071 b
same,CROP WEIGHT,poppy crops [4],3.25 a t/ha
same,MORPHINE,poppy crops [4],42.83 b kg/ha
same,SEED,poppy crops [4],1281 b kg/ha
same,STRAW,poppy crops [4],1917 b kg/ha
same,STRAW MORPHINE,poppy crops [4],2.23 b %
same,PLANT HEIGHT,poppy crops [4]; 5 weeks after last application,96.4 b cm
same,LODGING,poppy crops [4]; at capsule harvest,2.8 a %
